Reference: ChEMBL document CHEMBL1201862, “PubChem BioAssay data set” (2004)
The source made the active and inactive calls.

Key:
Estrogen receptor = target: T1, Estrogen receptor (Homo sapiens, UniProt P03372); assay: blockers of SRC-3 recruitment to ERα – biochemical, ELISA, streptavidin-HRP readout, orthogonal assay, confirmation (AID 1079)
T1 sequence (P03372 whole entry): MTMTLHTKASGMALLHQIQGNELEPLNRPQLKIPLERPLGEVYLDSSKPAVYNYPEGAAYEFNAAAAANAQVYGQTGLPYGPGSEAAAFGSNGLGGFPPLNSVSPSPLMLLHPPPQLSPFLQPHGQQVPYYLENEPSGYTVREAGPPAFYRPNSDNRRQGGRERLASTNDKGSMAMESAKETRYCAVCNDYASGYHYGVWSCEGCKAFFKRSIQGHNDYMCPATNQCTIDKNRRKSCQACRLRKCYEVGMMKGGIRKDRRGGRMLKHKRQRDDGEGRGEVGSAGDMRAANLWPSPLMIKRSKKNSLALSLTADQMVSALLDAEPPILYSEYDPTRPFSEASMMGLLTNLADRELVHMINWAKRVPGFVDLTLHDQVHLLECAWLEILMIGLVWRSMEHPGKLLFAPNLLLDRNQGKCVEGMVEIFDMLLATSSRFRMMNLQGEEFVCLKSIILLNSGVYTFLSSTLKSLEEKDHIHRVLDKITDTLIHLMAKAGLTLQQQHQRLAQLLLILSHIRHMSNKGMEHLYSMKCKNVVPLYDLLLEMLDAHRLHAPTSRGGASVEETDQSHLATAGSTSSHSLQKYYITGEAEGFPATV

[1] = target: Peroxisome proliferator-activated receptor gamma/Nuclear receptor corepressor 2 (Homo sapiens, UniProt P37231+Q9Y618); format: functional
Chain of Peroxisome proliferator-activated receptor gamma/Nuclear receptor corepressor 2 (P37231 whole entry): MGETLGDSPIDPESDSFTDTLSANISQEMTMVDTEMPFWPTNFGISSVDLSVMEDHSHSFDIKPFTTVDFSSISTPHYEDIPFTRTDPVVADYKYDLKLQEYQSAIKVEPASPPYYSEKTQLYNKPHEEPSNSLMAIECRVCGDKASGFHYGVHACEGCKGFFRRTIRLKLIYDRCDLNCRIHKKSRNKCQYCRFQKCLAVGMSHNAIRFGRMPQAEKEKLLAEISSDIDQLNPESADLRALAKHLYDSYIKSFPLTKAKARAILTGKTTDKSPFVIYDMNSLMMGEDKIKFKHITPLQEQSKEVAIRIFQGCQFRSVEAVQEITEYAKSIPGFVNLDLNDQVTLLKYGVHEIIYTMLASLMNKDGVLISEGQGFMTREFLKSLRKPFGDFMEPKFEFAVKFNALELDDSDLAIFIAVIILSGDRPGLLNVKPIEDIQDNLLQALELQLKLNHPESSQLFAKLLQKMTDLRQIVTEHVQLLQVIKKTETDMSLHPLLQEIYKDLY
Chain of Peroxisome proliferator-activated receptor gamma/Nuclear receptor corepressor 2 (Q9Y618 whole entry): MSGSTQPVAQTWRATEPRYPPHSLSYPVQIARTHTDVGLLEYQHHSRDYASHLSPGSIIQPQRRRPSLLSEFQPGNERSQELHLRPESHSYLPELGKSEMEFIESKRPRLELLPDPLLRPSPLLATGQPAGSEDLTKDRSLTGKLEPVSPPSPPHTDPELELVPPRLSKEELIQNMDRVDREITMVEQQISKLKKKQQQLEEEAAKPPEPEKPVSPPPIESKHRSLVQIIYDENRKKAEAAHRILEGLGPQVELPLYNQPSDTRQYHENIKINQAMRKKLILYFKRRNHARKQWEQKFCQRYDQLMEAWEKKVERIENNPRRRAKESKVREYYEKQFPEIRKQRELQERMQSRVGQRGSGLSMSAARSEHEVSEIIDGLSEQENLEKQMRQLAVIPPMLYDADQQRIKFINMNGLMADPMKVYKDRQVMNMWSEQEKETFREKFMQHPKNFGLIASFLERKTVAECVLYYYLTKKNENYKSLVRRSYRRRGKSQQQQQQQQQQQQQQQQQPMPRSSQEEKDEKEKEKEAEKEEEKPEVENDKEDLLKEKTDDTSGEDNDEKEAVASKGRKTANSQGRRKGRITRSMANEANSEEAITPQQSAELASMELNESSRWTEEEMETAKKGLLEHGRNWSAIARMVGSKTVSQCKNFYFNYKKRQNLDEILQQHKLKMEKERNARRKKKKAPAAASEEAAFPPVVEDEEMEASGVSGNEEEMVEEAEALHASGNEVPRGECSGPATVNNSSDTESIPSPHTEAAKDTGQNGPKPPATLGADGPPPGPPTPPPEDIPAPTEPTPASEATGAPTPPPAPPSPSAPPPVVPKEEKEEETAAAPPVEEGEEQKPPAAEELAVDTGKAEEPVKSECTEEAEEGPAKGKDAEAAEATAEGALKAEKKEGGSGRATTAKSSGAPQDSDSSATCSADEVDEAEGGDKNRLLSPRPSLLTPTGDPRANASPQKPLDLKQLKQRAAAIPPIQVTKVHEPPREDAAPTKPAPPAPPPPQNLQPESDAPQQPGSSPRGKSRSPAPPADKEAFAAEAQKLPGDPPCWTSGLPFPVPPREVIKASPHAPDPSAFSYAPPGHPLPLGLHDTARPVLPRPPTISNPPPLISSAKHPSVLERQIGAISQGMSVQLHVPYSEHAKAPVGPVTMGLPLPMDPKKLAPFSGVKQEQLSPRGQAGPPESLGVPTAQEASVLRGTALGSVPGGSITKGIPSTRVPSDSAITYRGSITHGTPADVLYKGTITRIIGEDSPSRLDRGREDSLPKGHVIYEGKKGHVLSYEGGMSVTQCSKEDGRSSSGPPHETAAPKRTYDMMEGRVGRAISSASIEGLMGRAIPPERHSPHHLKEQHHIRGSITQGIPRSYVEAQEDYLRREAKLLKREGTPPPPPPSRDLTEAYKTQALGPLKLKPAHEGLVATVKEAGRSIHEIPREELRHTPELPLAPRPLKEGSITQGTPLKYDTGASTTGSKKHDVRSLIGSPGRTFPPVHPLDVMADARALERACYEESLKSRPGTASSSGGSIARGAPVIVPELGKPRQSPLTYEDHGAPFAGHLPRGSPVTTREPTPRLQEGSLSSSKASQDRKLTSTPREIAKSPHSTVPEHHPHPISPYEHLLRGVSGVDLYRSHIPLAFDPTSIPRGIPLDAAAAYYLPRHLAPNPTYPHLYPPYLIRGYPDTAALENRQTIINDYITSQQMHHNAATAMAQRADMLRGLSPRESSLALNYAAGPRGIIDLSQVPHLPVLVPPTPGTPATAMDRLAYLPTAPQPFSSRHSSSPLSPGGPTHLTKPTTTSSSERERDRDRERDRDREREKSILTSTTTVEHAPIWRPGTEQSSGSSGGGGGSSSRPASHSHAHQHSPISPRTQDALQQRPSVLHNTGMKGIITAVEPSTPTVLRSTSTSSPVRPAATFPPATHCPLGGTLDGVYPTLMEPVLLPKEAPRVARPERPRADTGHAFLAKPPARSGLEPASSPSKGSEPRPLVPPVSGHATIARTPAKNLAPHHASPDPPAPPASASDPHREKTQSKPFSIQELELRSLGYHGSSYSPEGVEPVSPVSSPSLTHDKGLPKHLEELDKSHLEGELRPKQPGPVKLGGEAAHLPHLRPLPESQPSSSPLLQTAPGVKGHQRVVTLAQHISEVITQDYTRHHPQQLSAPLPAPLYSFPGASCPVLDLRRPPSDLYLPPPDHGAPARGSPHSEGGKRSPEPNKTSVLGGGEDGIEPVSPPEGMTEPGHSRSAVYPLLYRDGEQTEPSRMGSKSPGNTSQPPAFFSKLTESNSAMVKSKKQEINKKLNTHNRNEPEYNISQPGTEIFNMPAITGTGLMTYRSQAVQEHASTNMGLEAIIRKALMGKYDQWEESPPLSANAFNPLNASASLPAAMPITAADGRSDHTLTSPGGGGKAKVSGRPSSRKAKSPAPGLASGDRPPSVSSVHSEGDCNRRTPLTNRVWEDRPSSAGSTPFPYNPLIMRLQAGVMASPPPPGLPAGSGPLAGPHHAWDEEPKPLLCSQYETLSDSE

[2] = target: Photoreceptor-specific nuclear receptor (Homo sapiens, UniProt Q9Y5X4); format: functional;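 note: potency for compounds that break the NR2E3 corepressor complex and count as activators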
Chain of Photoreceptor-specific nuclear receptor (Q9Y5X4 whole entry): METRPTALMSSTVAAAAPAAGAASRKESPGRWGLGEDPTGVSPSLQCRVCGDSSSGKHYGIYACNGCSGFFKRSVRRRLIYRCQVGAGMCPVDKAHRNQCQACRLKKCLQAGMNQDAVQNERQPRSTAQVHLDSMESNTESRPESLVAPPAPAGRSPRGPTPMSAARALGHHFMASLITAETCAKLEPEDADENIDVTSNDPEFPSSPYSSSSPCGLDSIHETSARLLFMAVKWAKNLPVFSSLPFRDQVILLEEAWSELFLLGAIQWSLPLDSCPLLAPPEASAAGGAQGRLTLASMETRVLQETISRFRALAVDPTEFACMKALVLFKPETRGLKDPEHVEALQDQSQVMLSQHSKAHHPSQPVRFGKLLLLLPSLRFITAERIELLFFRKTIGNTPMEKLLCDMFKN

Chaperone protein dnaK = Chaperone protein dnaK (Escherichia coli, UniProt C3TRK2); assay: E. coli DnaK binders, calorimetric Kd – biophysical, isothermal titration calorimetry, beta-domain, full-length DnaK, orthogonal assay for DnaK modulator project, SAR follow-up (AID 1495)
Chain of Chaperone protein dnaK (C3TRK2 whole entry): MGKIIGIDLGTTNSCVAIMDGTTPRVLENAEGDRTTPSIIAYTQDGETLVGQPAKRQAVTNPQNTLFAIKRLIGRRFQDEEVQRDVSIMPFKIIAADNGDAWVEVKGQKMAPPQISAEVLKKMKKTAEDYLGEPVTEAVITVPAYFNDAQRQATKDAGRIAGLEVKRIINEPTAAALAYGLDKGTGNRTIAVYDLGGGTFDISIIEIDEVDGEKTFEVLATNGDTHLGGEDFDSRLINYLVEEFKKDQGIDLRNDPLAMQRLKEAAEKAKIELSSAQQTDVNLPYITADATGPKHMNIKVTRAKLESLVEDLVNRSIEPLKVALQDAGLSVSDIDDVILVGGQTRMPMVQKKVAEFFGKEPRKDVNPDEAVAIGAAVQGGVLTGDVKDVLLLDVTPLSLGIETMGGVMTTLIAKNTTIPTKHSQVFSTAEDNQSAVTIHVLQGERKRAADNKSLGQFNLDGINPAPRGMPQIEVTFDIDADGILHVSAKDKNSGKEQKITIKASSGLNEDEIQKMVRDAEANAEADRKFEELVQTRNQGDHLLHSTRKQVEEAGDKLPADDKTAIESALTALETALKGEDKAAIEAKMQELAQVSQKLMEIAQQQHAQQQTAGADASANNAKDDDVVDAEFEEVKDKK

[3] = A cytotoxicity screen of small molecule inhibitors of the PhoP region in Salmonella typhi identified in the primary screen. [Related pubchem assays: 1850, 1864, 1985 ]; format: functional
NS3 = NS3 (Hepatitis C virus, UniProt A3EZJ3); assay: PubChem AID 2173; set-up: species or system Hepacivirus hominis
Chain of NS3 (A3EZJ3 whole entry): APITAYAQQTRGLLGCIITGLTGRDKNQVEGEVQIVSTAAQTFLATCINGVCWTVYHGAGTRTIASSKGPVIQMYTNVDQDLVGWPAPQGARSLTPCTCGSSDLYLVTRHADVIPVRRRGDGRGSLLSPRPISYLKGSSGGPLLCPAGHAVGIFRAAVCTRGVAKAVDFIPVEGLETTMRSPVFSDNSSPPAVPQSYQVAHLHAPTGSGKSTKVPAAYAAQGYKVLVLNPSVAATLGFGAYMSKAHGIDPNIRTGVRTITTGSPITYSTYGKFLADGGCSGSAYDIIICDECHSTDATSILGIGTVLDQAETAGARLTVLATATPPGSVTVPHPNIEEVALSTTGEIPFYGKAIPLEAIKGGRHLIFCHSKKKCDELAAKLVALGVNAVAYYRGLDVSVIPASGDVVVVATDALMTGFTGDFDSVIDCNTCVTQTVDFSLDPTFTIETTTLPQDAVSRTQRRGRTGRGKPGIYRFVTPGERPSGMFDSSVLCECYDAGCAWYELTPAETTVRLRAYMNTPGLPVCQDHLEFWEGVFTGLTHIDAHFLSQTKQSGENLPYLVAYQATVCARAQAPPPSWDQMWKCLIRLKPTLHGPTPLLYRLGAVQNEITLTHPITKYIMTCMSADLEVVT

[4] = target: Heat shock protein HSP 90-alpha (Homo sapiens, UniProt P07900); format: functional, organism-based
INS1 = assay: INS-1E survival protection against cytokine death – cell-based, luminescence, retest, dose response (AID 449756); format: functional; details: Rattus norvegicus;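 note: cell death triggered by IL-1 beta plus TNF-alpha plus IFN-gamma mixture; protective hits raise ATP signal compared with cytokine alone wells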
cells [5] = format: functional
[6] = alpha-synuclein stem-loop translation blockers – luminescence, H4 neuroglioblastoma cells, dose confirmation, confirmation (AID 2454); format: functional, cell-based;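 note: H4 neuroglioblastoma cells carrying an alpha-synuclein 5'UTR luciferase reporter; potency for inhibition of the luciferase signal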
[7] = Vero E6 cell cytotoxicity, dose response, cytotoxicity control for non-replicating M. tuberculosis project, secondary assay (AID 492998); format: functional, VeroE6; details: Vero C1008
cells [8] = format: functional, cell-based
[9] = microbe, parasite or virus in culture; format: functional; details: Mycobacterium tuberculosis
[10] = alpha-synuclein stem-loop luciferase translation blockers – H4 neuroglioma cells, luminescence, confirmation (AID 1988); format: functional, cell-based
Streptococcus = assay: GAS UMAA2166 growth inhibition – luminescence, BacTiterGlo, counter-screen for streptokinase expression inhibitor project, dose response (AID 1915); format: functional, organism-based;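 note: potency for reduction of bacterial viability or growth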
[11] = HEK-293T viability loss after treatment – luminescence, T-cell screen hits, cytotoxicity control for TCR NF-kB inhibitor project, dose response (AID 489026); format: functional, cell-based;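 note: cells exposed to compound about 14 hours before the viability readout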
[12] = luciferase reporter signal reduction – luminescence, H4-C neuroglioblastoma cells, dose response (AID 2458); format: functional, cell-based;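 note: H4 neuroglioblastoma cells stably carrying a luciferase reporter gene fusion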
[13] = tested on: Streptococcus sp. 'group A'; assay: Streptococcus pyogenes SK(-)GAS viability under kanamycin – luminescence, BacTiterGlo, confirmation, counter-screen for streptokinase expression inhibitor project, dose response (AID 1900); format: functional, organism-based
Streptokinase A = target: T2, Streptokinase A (Streptococcus pyogenes serotype M1, UniProt P10520); assay: viability-normalized secreted streptokinase activity reduction – plasminogen activation absorbance, OD405, dose response (AID 1914); format: functional, Streptococcus pyogenes M1 GAS;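 note: secreted streptokinase activity via plasminogen activation per viability signal from cell pellet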
T2 sequence (P10520 whole entry): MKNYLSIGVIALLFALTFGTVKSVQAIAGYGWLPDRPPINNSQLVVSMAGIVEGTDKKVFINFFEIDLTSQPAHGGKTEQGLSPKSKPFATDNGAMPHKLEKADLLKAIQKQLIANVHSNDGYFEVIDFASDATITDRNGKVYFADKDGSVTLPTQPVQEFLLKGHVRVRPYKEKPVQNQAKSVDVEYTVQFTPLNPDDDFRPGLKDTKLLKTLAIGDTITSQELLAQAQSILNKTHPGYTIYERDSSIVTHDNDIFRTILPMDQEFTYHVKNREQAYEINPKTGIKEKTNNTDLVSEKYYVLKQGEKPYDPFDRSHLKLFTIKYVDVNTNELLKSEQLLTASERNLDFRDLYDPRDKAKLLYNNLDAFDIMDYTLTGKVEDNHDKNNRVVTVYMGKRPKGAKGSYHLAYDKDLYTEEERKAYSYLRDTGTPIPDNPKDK

[14] = THP-1 cell cytotoxicity, dose response, cytotoxicity control for non-replicating M. tuberculosis project (AID 489025); format: functional

Which IC50 (Estrogen receptor) does the source give for `O=C(CCCn1c(=S)[nH]c2ccccc2c1=O)N1CCN(c2ccc(Cl)cc2)CC1` here?
Its IC50 is 19.8 µM (not active).

What does the source list for `O=C(O)c1cc(-c2ccco2)nc2ccc(Br)cc12`?
IC50 [1]: 1.58 µM (active); IC50 [2]: > 39.8 µM (not active)

For `O=C(c1cccs1)N1CCN(CCO)CC1`, which Kd (Chaperone protein dnaK) is on record?
Its Kd is 16.7 µM (inactive).

With `Cc1ccsc1/C=N\NC(=O)c1ccc2c(c1)OCO2` as the compound, how does the EC50 [3] read?
Its EC50 is > 50 µM (active).

What does the source list for `O=C(N/N=C/c1cc(Cl)c(O)c(Cl)c1)c1cc2c(ccc3ccccc32)o1`?
IC50 (NS3): 4.26 µM (active); AC50 [4]: 4.54 µM (active)

For `CCOc1ccc(Nc2cc(C)nc(-n3nc(C)cc3C)n2)cc1`, which AC50 (INS1) is on record?
The AC50 was 2.55 µM (active).

And the IC50 (cells [5])?
Its IC50 is 0.56 µM (active).

And the EC50 [6]?
Its EC50 is 0.88 µM (active).

What about the CC50 [7] of the same compound?
The CC50 was 1.14 µM (active).

And the EC50 (cells [8])?
Its EC50 is 0.969 µM (active).

And the CC50 [9]?
The CC50 was 6.26 µM (active).

What about the EC50 [10] of the same compound?
Its EC50 is < 0.1 µM (active).

What about the EC50 (Streptococcus) of the same compound?
Its EC50 is > 150 µM (not active).

And the IC50 [11]?
The IC50 was > 80 µM (inactive).

And the EC50 [12]?
The EC50 was 0.588 µM (active).

What about the EC50 [13] of the same compound?
The EC50 was 7.01 µM (active).

And the EC50 (Streptokinase A)?
The EC50 was > 150 µM (not active).

And the CC50 [14]?
The CC50 was 0.357 µM (active).
